Assays:
human Nav 1.5 = human Nav 1.5 (Homo sapiens (Human), UniProt Q14524); assay: Nav 1.5 IonWorks Quattro (IWQ) in vitro assay; assay type: cell-based; settings: read-out: NAV 1.5 IWQ IC50
Procedure: Nav 1.7 or Nav 1.5 Ion Works Quattro (IWQ) In Vitro Assay
HEK 293 Cells stably transfected with either human Nay 1.7 or human Nay 1.5 were recorded in population patch-clamp mode with the IonWorks® Quattro automated electrophysiology system in accordance with the manufacturer's specifications (Molecular Devices, LLC, Sunnyvale, Calif.). Sodium channel currents were measured in response to a train of depolarizations that induced successively greater inactivation.
Cells were held at −110 mV for three seconds (Nav 1.7) or half a second (Nav 1.5) from a holding voltage of −15 mV, then put through a series of 26 pulses of 150 msec duration to −20 mV at a frequency of 5 Hz. Cells were then left unclamped for a period of 3 to 8 minutes while a single concentration of test compound was added. Cells were then reclamped and put through the same voltage protocol. Current at the end of the 26th pulse to −20 mV was subtracted from the peak current evoked by the 26th pulse to −20 mV to correct for leak current. Percent block was calculated for each concentration in duplicate, and IC50 curves were fitted to percent block as a function of concentration.

human Nav1.7 = human Nav1.7 (Homo sapiens (Human), UniProt Q15858); assay: Nav 1.7 in vitro PatchXpress (PX) assay; assay type: cell-based
human Nav1.7, sequence (Q15858 whole entry): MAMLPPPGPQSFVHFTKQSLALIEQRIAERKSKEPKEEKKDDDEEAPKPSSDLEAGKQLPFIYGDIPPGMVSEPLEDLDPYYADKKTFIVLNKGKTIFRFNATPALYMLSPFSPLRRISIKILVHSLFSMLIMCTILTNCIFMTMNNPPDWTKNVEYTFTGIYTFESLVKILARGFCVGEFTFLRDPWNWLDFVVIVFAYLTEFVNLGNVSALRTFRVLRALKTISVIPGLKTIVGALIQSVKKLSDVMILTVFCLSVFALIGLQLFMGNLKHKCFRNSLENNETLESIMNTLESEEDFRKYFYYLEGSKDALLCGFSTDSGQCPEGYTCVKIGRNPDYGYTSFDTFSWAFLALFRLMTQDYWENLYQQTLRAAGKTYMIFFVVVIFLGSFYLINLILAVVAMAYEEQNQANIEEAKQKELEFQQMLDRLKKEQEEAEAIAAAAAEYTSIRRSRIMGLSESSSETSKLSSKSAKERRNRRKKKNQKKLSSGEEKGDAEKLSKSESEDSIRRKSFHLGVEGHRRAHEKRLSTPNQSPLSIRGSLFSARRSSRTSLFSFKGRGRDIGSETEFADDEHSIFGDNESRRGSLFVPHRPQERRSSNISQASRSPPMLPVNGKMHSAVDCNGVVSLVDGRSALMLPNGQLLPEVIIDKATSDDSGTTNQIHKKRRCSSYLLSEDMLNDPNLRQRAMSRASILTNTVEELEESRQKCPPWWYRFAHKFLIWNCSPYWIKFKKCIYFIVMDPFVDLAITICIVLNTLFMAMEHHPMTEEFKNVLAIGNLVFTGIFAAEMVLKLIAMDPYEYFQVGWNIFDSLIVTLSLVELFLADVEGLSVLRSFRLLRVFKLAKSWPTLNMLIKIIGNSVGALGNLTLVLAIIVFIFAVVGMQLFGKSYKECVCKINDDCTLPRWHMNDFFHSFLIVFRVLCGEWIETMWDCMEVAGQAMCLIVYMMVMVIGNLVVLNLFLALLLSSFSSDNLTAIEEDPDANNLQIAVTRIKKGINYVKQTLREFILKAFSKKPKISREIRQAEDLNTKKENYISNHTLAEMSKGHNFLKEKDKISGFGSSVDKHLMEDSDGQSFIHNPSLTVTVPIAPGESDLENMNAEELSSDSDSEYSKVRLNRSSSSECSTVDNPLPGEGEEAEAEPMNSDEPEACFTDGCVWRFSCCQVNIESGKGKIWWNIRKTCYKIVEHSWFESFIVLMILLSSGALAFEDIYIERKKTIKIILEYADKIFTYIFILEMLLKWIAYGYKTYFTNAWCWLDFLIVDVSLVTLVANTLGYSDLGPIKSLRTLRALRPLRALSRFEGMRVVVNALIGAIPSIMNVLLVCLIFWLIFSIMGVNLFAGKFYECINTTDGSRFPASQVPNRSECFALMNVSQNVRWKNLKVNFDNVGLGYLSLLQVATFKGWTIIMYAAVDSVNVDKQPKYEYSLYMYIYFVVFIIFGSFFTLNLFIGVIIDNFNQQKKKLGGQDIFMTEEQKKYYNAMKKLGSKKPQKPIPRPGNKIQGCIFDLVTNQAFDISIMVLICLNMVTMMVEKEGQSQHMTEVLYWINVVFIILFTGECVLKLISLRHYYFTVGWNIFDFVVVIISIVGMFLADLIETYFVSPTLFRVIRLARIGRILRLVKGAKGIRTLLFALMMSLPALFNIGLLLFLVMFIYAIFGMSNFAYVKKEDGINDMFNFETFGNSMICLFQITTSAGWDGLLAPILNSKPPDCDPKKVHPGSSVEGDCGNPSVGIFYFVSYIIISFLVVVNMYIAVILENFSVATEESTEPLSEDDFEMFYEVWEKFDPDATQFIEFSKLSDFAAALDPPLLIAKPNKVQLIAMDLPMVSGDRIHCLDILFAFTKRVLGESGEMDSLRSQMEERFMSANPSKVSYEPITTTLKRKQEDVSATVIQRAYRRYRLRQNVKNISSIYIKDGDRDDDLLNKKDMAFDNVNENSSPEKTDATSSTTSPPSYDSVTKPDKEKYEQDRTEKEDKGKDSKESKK
Procedure: HEK 293 cells stably transfected with human Nav1.7 were recorded in whole cell voltage clamp mode with the PatchXpress automated electrophysiology system (Molecular Devices, LLC, Sunnyvale, Calif.). Compound effects were measured on a partially inactivated state of the sodium channel. Cells were clamped to a holding potential yielding 20 to 50% inactivation. To elicit sodium current, channels were activated by pulsing to −10 mV for 20 msec. This voltage protocol was repeated at a rate of 0.1 Hz throughout the experiment. A single concentration of test compound was applied to cells for a duration of 3 minutes. Peak sodium current was measured at the end of the compound addition period to determine percent inhibition. Three to five cells were tested per concentration, and IC50 curves were fitted to percent inhibition as a function of concentration.

human Nav 1.5, sequence (Q14524 whole entry): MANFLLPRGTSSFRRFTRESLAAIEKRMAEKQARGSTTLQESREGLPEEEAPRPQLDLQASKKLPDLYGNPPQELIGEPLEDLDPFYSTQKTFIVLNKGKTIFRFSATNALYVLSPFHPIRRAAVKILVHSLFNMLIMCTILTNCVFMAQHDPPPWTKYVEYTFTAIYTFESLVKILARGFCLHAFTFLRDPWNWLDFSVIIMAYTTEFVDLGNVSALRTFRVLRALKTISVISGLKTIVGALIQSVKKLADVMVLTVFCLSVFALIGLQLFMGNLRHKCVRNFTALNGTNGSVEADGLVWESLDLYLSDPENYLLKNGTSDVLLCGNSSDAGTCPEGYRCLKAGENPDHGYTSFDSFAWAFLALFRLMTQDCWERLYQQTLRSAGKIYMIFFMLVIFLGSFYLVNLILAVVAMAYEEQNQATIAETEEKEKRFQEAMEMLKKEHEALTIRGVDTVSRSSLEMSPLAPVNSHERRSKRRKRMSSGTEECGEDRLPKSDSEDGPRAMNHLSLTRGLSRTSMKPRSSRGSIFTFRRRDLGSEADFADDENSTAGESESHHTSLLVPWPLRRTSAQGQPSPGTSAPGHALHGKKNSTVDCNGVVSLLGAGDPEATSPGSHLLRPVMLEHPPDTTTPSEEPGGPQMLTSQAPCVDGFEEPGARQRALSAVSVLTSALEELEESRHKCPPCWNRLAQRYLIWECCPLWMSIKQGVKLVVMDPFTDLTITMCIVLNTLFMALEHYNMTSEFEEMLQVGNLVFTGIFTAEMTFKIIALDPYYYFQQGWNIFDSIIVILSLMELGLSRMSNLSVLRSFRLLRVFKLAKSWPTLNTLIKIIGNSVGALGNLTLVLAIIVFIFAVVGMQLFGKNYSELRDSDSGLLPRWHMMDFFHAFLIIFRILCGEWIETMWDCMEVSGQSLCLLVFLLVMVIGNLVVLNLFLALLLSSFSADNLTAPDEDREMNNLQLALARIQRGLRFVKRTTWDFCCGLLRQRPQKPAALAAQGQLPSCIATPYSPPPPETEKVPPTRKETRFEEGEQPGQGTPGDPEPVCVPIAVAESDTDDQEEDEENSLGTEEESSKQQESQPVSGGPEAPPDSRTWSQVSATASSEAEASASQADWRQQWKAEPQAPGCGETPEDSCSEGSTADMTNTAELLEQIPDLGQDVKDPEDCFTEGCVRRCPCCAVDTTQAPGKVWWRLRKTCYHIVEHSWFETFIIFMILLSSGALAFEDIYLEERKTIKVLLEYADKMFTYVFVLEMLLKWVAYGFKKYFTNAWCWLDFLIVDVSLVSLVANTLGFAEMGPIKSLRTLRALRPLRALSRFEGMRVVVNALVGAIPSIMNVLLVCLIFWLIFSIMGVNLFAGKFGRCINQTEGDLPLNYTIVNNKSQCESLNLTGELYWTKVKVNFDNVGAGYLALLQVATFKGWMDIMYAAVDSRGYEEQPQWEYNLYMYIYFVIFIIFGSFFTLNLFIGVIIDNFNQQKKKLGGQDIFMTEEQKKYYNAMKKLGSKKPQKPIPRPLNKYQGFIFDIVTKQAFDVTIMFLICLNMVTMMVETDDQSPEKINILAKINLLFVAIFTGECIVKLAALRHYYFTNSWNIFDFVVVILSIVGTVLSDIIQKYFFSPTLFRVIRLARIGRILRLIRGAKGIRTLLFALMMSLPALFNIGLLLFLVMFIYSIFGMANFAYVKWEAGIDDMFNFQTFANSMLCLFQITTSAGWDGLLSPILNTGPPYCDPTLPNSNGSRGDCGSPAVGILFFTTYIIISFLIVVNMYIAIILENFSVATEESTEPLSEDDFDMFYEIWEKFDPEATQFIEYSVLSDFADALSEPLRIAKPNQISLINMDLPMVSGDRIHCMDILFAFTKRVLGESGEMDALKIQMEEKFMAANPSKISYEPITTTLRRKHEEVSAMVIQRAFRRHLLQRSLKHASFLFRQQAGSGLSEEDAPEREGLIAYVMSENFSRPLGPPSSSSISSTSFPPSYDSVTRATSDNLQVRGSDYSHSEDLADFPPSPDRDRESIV

Row | SMILES | IC50 (human Nav 1.5) [µM] | IC50 (human Nav1.7) [µM]
1 | Cc1cc(C(=O)NS(C)(=O)=O)c(F)cc1-c1cnc(O[C@H]2C[C@H]3CC[C@@H]2C3)c(Cl)c1 [Example 635, 4-(6-((1R,2S,4S)-bicyclo[2.2.1]hept-2-yloxy)-5-chloro-3-pyridinyl)-2-fluoro-5-methyl-N-(methylsulfonyl)benzamide] | > 3 | 0.0809
2 | Cc1cc(C(=O)NS(C)(=O)=O)c(F)cc1-c1cnc(OCc2nc3ccccc3s2)c(Cl)c1 [Example 636, 4-(6-(1,3-benzothiazol-2-ylmethoxy)-5-chloro-3-pyridinyl)-2-fluoro-5-methyl-N-(methylsulfonyl)benzamide] | > 3 | 0.0557
3 | Cc1cc(C(=O)NS(C)(=O)=O)c(F)cc1-c1cnc(OCCC(C)C)c(Cl)c1 [Example 637, 4-(5-chloro-6-(3-methylbutoxy)-3-pyridinyl)-2-fluoro-5-methyl-N-(methylsulfonyl)benzamide] | > 3 | 0.0877
4 | Cc1cc(C(=O)NS(C)(=O)=O)c(F)cc1-c1cnc(O[C@H](C)CCc2ccccc2)c(Cl)c1 [Example 638, 4-(5-chloro-6-(((1R)-1-methyl-3-phenylpropyl)oxy)-3-pyridinyl)-2-fluoro-5-methyl-N-(methylsulfonyl)benzamide, 4-(5-chloro-6-(((1S)-1-methyl-3-phenylpropyl)oxy)-3-pyridinyl)-2-fluoro-5-methyl-N-(methylsulfonyl)benzamide] | > 3 | 0.08
5 | CC[C@@H](Oc1ncc(-c2cc(F)c(C(=O)NS(C)(=O)=O)cc2C)cc1Cl)c1ccc(Cl)cc1 [Example 640, 4-(5-chloro-6-(((1R)-1-(4-chlorophenyl)propyl)oxy)-3-pyridinyl)-2-fluoro-5-methyl-N-(methylsulfonyl)benzamide, 4-(5-chloro-6-(((1S)-1-(4-chlorophenyl)propyl)oxy)-3-pyridinyl)-2-fluoro-5-methyl-N-(methylsulfonyl)benzamide] | > 3 | 0.0908
6 | Cc1cc(C(=O)NS(C)(=O)=O)c(F)cc1-c1cnc(O[C@H](C)C2CCC2)c(Cl)c1 [Example 641, 4-(5-chloro-6-((1R)-1-cyclobutylethoxy)-3-pyridinyl)-2-fluoro-5-methyl-N-(methylsulfonyl)benzamide, 4-(5-chloro-6-((1S)-1-cyclobutylethoxy)-3-pyridinyl)-2-fluoro-5-methyl-N-(methylsulfonyl)benzamide] | 9.33 | 0.111
7 | Cc1cc(C(=O)NS(C)(=O)=O)c(F)cc1-c1cnc(Oc2cc(C(F)(F)F)ccc2Cl)c(Cl)c1 [Example 642, 4-(5-chloro-6-(2-chloro-5-(trifluoromethyl)phenoxy)-3-pyridinyl)-2-fluoro-5-methyl-N-(methylsulfonyl)benzamide] | > 3 | 0.0705
8 | Cc1cc(C(=O)NS(C)(=O)=O)c(F)cc1-c1cnc(Oc2ccc(C)c(F)c2F)c(Cl)c1 [Example 643, 4-(5-chloro-6-(2,3-difluoro-4-methylphenoxy)-3-pyridinyl)-2-fluoro-5-methyl-N-(methylsulfonyl)benzamide] | 5.44 | 0.0792
9 | Cc1cc(C(=O)NS(C)(=O)=O)c(F)cc1-c1cnc(Oc2c(Cl)cc(F)cc2Cl)c(Cl)c1 [Example 644, 4-(5-chloro-6-(2,6-dichloro-4-fluorophenoxy)-3-pyridinyl)-2-fluoro-5-methyl-N-(methylsulfonyl)benzamide] | > 3 | 0.0828
10 | CCOc1ccc(Oc2ncc(-c3cc(F)c(C(=O)NS(C)(=O)=O)cc3C)cc2Cl)cc1F [Example 645, 4-(5-chloro-6-(4-ethoxy-3-fluorophenoxy)-3-pyridinyl)-2-fluoro-5-methyl-N-(methylsulfonyl)benzamide] | > 3 | 0.0973
11 | Cc1cc(C(=O)NS(C)(=O)=O)c(F)cc1-c1cnc(N2CCC[C@H]2c2ccccc2)c(Cl)c1 [Example 646, 4-(5-chloro-6-((2S)-2-phenyl-1-pyrrolidinyl)-3-pyridinyl)-2-fluoro-5-methyl-N-(methylsulfonyl)benzamide] | > 3 | 0.0999
12 | Cc1cc(C(=O)NS(C)(=O)=O)c(F)cc1-c1cnc(O[C@H](C)c2nc3ccccc3s2)c(Cl)c1 [Example 647, 4-(6-((1R)-1-(1,3-benzothiazol-2-yl)ethoxy)-5-chloro-3-pyridinyl)-2-fluoro-5-methyl-N-(methylsulfonyl)benzamide, 4-(6-((1S)-1-(1,3-benzothiazol-2-yl)ethoxy)-5-chloro-3-pyridinyl)-2-fluoro-5-methyl-N-(methylsulfonyl)benzamide] | > 3 | 0.076
13 | COc1ccccc1C[C@@H](C)Oc1ncc(-c2cc(F)c(C(=O)NS(C)(=O)=O)cc2C)cc1Cl [Example 649, 4-(5-chloro-6-((1R)-2-(2-methoxyphenyl)-1-methylethoxy)-3-pyridinyl)-2-fluoro-5-methyl-N-(methylsulfonyl)benzamide, 4-(5-chloro-6-((1S)-2-(2-methoxyphenyl)-1-methylethoxy)-3-pyridinyl)-2-fluoro-5-methyl-N-(methylsulfonyl)benzamide] | > 3 | 0.0929
14 | CC[C@@H](Oc1ncc(-c2cc(F)c(C(=O)NS(C)(=O)=O)cc2C)cc1Cl)c1ccc(F)cc1 [Example 650, 4-(5-chloro-6-(((1R)-1-(4-fluorophenyl)propyl)oxy)-3-pyridinyl)-2-fluoro-5-methyl-N-(methylsulfonyl)benzamide] | > 3 | 0.0787
15 | CC[C@H](Oc1ncc(-c2cc(F)c(C(=O)NS(C)(=O)=O)cc2C)cc1Cl)c1ccc(F)cc1 [Example 651, 4-(5-chloro-6-(((1S)-1-(4-fluorophenyl)propyl)oxy)-3-pyridinyl)-2-fluoro-5-methyl-N-(methylsulfonyl)benzamide] | > 3 | 0.0735
16 | Cc1cc(C(=O)NS(C)(=O)=O)c(F)cc1-c1cnc(O[C@H](C)c2ccc(F)cc2Cl)c(Cl)c1 [Example 652, 4-(5-chloro-6-((1R)-1-(2-chloro-4-fluorophenyl)ethoxy)-3-pyridinyl)-2-fluoro-5-methyl-N-(methylsulfonyl)benzamide, 4-(5-chloro-6-((1S)-1-(2-chloro-4-fluorophenyl)ethoxy)-3-pyridinyl)-2-fluoro-5-methyl-N-(methylsulfonyl)benzamide] | > 3 | 0.0664
17 | Cc1cc(C(=O)NS(C)(=O)=O)c(F)cc1-c1cnc(O[C@H](C)c2nc3cc(Cl)ccc3s2)c(Cl)c1 [Example 653, 4-(5-chloro-6-((1R)-1-(5-chloro-1,3-benzothiazol-2-yl)ethoxy)-3-pyridinyl)-2-fluoro-5-methyl-N-(methylsulfonyl)benzamide, 4-(5-chloro-6-((1S)-1-(5-chloro-1,3-benzothiazol-2-yl)ethoxy)-3-pyridinyl)-2-fluoro-5-methyl-N-(methylsulfonyl)benzamide] | > 3 | 0.0836
18 | Cc1cc(C(=O)NS(C)(=O)=O)c(F)cc1-c1cnc(OCc2cccc3ncccc23)c(Cl)c1 [Example 654, 4-(5-chloro-6-(5-quinolinylmethoxy)-3-pyridinyl)-2-fluoro-5-methyl-N-(methylsulfonyl)benzamide] | > 3 | 0.0904
19 | Cc1cc(C(=O)NS(C)(=O)=O)c(F)cc1-c1cnc(N2CCC[C@@H]2c2cccc(Cl)c2)c(Cl)c1 [Example 656, 4-(5-chloro-6-((2R)-2-(3-chlorophenyl)-1-pyrrolidinyl)-3-pyridinyl)-2-fluoro-5-methyl-N-(methylsulfonyl)benzamide, 4-(5-chloro-6-((2S)-2-(3-chlorophenyl)-1-pyrrolidinyl)-3-pyridinyl)-2-fluoro-5-methyl-N-(methylsulfonyl)benzamide] | > 3 | 0.0738
20 | Cc1ccc([C@H]2CCCN2c2ncc(-c3cc(F)c(C(=O)NS(C)(=O)=O)cc3C)cc2Cl)cc1 [Example 657, 4-(5-chloro-6-((2R)-2-(4-methylphenyl)-1-pyrrolidinyl)-3-pyridinyl)-2-fluoro-5-methyl-N-(methylsulfonyl)benzamide, 4-(5-chloro-6-((2S)-2-(4-methylphenyl)-1-pyrrolidinyl)-3-pyridinyl)-2-fluoro-5-methyl-N-(methylsulfonyl)benzamide] | > 3 | 0.0929
21 | Cc1cc(C(=O)NS(C)(=O)=O)c(F)cc1-c1cnc(N2CCC[C@@H]2c2ccc(Cl)c(Cl)c2)c(Cl)c1 [Example 658, 4-(5-chloro-6-((2R)-2-(3,4-dichlorophenyl)-1-pyrrolidinyl)-3-pyridinyl)-2-fluoro-5-methyl-N-(methylsulfonyl)benzamide, 4-(5-chloro-6-((2S)-2-(3,4-dichlorophenyl)-1-pyrrolidinyl)-3-pyridinyl)-2-fluoro-5-methyl-N-(methylsulfonyl)benzamide] | > 3 | 0.0899
22 | Cc1cc(C(=O)NS(C)(=O)=O)c(F)cc1-c1cnc(O[C@H](C)c2cc(F)c(F)cc2F)c(Cl)c1 [Example 660, 4-(5-chloro-6-((1R)-1-(2,4,5-trifluorophenyl)ethoxy)-3-pyridinyl)-2-fluoro-5-methyl-N-(methylsulfonyl)benzamide, 4-(5-chloro-6-((1S)-1-(2,4,5-trifluorophenyl)ethoxy)-3-pyridinyl)-2-fluoro-5-methyl-N-(methylsulfonyl)benzamide] | 6.44 | 0.0925
23 | Cc1cc(C(=O)NS(C)(=O)=O)c(F)cc1-c1cnc(O[C@H](C)c2c(F)cc(F)cc2F)c(Cl)c1 [Example 661, 4-(5-chloro-6-((1R)-1-(2,4,6-trifluorophenyl)ethoxy)-3-pyridinyl)-2-fluoro-5-methyl-N-(methylsulfonyl)benzamide, 4-(5-chloro-6-((1S)-1-(2,4,6-trifluorophenyl)ethoxy)-3-pyridinyl)-2-fluoro-5-methyl-N-(methylsulfonyl)benzamide] | > 10 | 0.0769
24 | Cc1cc(C(=O)NS(C)(=O)=O)c(F)cc1-c1cnc(Oc2ccc(C)c3c2CCC3)c(Cl)c1 [Example 662, 4-(5-chloro-6-((7-methyl-2,3-dihydro-1H-inden-4-yl)oxy)-3-pyridinyl)-2-fluoro-5-methyl-N-(methylsulfonyl)benzamide] | 3.77 | 0.0882
